The values below come from ChEMBL document CHEMBL1134706, “Novel cytotoxic 7-iminomethyl and 7-aminomethyl derivatives of camptothecin” (Bioorg Med Chem Lett, 2001).

For one data set, the system named is NCI-H460. Briefly: In vitro cytotoxicity against H460 a human non-small lung carcinoma cell line after 1 hour drug exposure. The note with it: NCI-H460, 1 h. The data set is classed as functional, cell-based.
Data set [1] in a line: Partition coefficient (logP). The data set is classed as physicochemical. The following applies: octanol/water.
Data set [2] in a line: In vivo antitumor activity in NSCLC H460 xenografted sc in athymic nude mice expressed as percent tumor volume inhibition (TVI) at a dose of 2 mg/kg perorally for q4dx4. The class given is functional, Mus musculus. The following applies: route oral.
Data set [3] can be described thus: In vivo antitumor activity in NSCLC H460 xenografted sc in athymic nude mice expressed as percent Tumor volume inhibition (TVI) at a dose of 6 mg/kg perorally for q4dx4. The class given is functional, Mus musculus. The following applies: route oral.
Data set [4] in a line: In vivo antitumor activity in NSCLC H460 xenografted sc in athymic nude mice expressed as percent Body weight loss (BWL) at a dose of 18 mg/kg orally for q4dx4. The class given is functional, Mus musculus. The following applies: route oral.
Data set [5] is described as follows: In vivo antitumor activity in NSCLC H460 xenografted sc in athymic nude mice expressed as percent Body weight loss (BWL) at a dose of 6 mg/kg orally for q4dx4. The data set is classed as functional, Mus musculus. The note with it: route oral.
The nature of data set [6]: In vivo antitumor activity in NSCLC H460 xenografted sc in athymic nude mice expressed as percent Body weight loss (BWL) at a dose of 2 mg/kg orally for q4dx4. The class given is functional, Mus musculus. The note with it: route oral.
Data set [7] is described as follows: In vivo antitumor activity in NSCLC H460 xenografted sc in athymic nude mice expressed as percent Tumor volume inhibition (TVI) at a dose of 18 mg/kg perorally for q4dx4. The class given is functional, Mus musculus. The note with it: route oral.
A short description of data set [8]: In vivo antitumor activity in NSCLC H460 xenografted sc in athymic nude mice expressed as percent tumor volume inhibition (TVI) at a dose of 15 mg/kg perorally for q4dx4. The class given is functional, Mus musculus. The note with it: route oral.
Data set [9] in a line: In vivo antitumor activity in NSCLC H460 xenografted sc in athymic nude mice expressed as percent Body weight loss (BWL) at a dose of 15 mg/kg orally for q4dx4. The data set is classed as functional, Mus musculus. The following applies: route oral.

As to `CC[C@@]1(O)C(=O)OCc2c1cc1n(c2=O)Cc2c-1nc1ccccc1c2/C=N/c1ccc([N+](=O)[O-])cc1`, it took 280 nM to reach half-maximal inhibition with NCI-H460 (IC50). This molecule also came in with a logP in [1] of 2.34.

As to `CC[C@@]1(O)C(=O)OCc2c1cc1n(c2=O)Cc2c-1nc1ccccc1c2/C=N/CCN(C)C`, in the data set on NCI-H460, the IC50 turned out to be 120 nM. The molecule also yielded a logP in data set [1] of 1.53.

Molecule `CC[C@@]1(O)C(=O)OCc2c1cc1n(c2=O)Cc2c-1nc1ccccc1c2/C=N/CCCCO` showed an IC50 in the data set on NCI-H460 of 360 nM. Further, the logP in data set [1] was determined as 1.57.

With `CC[C@@]1(O)C(=O)OCc2c1cc1n(c2=O)Cc2c-1nc1ccccc1c2CNCCN(C)C`, the IC50 in the data set with NCI-H460 worked out at 450 nM. For the same molecule, in [1], the logP was found to be 0.89.

In the data set on NCI-H460, `CC[C@@]1(O)C(=O)OCc2c1cc1n(c2=O)Cc2c-1nc1ccccc1c2CN=C(N)N` showed an IC50 of 12600 nM. In [1], this molecule yielded a lipophilicity (logP) of -0.79.

In the case of `CC[C@@]1(O)C(=O)OCc2c1cc1n(c2=O)Cc2c-1nc1ccccc1c2/C=N/C1CCCCC1`, in the data set on NCI-H460, the IC50 was determined as 370 nM. This molecule also had a logP in data set [1] of 3.08.

As to `CC[C@@]1(O)C(=O)OCc2c1cc1n(c2=O)Cc2c-1nc1ccccc1c2/C=N/c1ccccc1`, the midpoint of inhibition in the data set on NCI-H460, the IC50, lay at 130 nM. The TVI is 33% in data set [2], 51% in data set [3] and 89% in [7]. The BWL in data set [4] stood at 1%; in data set [5] it was 7%; in [6], 2%. In addition, in data set [1], the log partition coefficient (logP) was found to be 3.19.

Take `CC[C@@]1(O)C(=O)OCc2c1cc1n(c2=O)Cc2c-1nc1ccccc1c2CN`: it took 2370 nM to reach half-maximal inhibition in the data set with NCI-H460 (IC50). The molecule further showed a log partition coefficient (logP) in [1] of 0.37.

In the case of `CC[C@@]1(O)C(=O)OCc2c1cc1n(c2=O)Cc2c-1nc1ccccc1c2/C=N/Cc1ccccc1`, in the data set on NCI-H460, the IC50 is 280 nM. Moreover, in data set [1], the logP came out at 3.26.

Molecule `CC[C@@]1(O)C(=O)OCc2c1cc1n(c2=O)Cc2c-1nc1ccccc1c2/C=N/N=C(N)N` displayed an IC50 in the data set on NCI-H460 of 39300 nM. For the same molecule, the logP in data set [1] amounted to 0.67.

Molecule `CC[C@@]1(O)C(=O)OCc2c1cc1n(c2=O)Cc2c-1nc1ccccc1c2CNc1ccccc1` yielded a 50% inhibitory concentration (IC50) in the data set on NCI-H460 of 310 nM. The molecule also returned a logP in data set [1] of 2.56.

`CC[C@@]1(O)C(=O)OCc2c1cc1n(c2=O)Cc2c-1nc1ccccc1c2CNC1CCCCC1` yielded an IC50 in the data set on NCI-H460 of 350 nM. The logP in data set [1] was determined as 2.44.

`CC[C@@]1(O)C(=O)OCc2c1cc1n(c2=O)Cc2cc3c(CN(C)C)c(O)ccc3nc2-1` [TOPOTECAN] gave a 50% inhibitory concentration (IC50) with NCI-H460 of 1380 nM. In addition, the TVI in [8] was determined as 95%. For the same molecule, the BWL in [9] worked out at 12%.

By IC50 is commonly meant the point on the concentration scale where inhibition reaches its midpoint. One may read the logP as the decadic logarithm of the partition coefficient of the neutral form, usually between octanol and water.
